BindingDB's records for doi:10.1021/jm010087e (The University of Western Australia, 2001)

Assay: Inhibitory activity against clostridium histolyticum collagenase

Row | Compound | Ki [nM]
1 | CC(C(=O)O)N(Cc1ccccc1[N+](=O)[O-])S(=O)(=O)c1ccc(Cl)cc1 (configuration not stated) [2-[(4-Chloro-benzenesulfonyl)-(2-nitro-benzyl)-amino]-propionic acid] | 11000
2 | CC(C(=O)NO)N(Cc1ccccc1[N+](=O)[O-])S(=O)(=O)c1ccc(F)cc1 (configuration not stated) [2-[(4-Fluoro-benzenesulfonyl)-(2-nitro-benzyl)-amino]-N-hydroxy-propionamide] | 30
3 | CC(C(=O)O)N(Cc1ccccc1[N+](=O)[O-])S(=O)(=O)c1ccc(F)cc1 (configuration not stated) [2-[(4-Fluoro-benzenesulfonyl)-(2-nitro-benzyl)-amino]-propionic acid] | 12000
4 | CC(C(=O)O)N(Cc1ccccc1[N+](=O)[O-])S(=O)(=O)c1ccc(I)cc1 (configuration not stated) [2-[(4-Iodo-benzenesulfonyl)-(2-nitro-benzyl)-amino]-propionic acid] | 11000
5 | COc1ccc(S(=O)(=O)N(Cc2ccccc2[N+](=O)[O-])C(C)C(=O)O)cc1 (configuration not stated) [2-[(4-Methoxy-benzenesulfonyl)-(2-nitro-benzyl)-amino]-propionic acid] | 5700
6 | CC(C(=O)O)N(Cc1ccccc1[N+](=O)[O-])S(=O)(=O)c1ccc([N+](=O)[O-])cc1 (configuration not stated) [2-[(4-Nitro-benzenesulfonyl)-(2-nitro-benzyl)-amino]-propionic acid] | 5000
7 | CC(C(=O)O)N(Cc1ccccc1[N+](=O)[O-])S(=O)(=O)c1ccc(NC(=O)OC(C)(C)C)cc1 (configuration not stated) [2-[(4-tert-Butoxycarbonylamino-benzenesulfonyl)-(2-nitro-benzyl)-amino]-propionic acid] | 2600
8 | CC(C(=O)NO)N(Cc1ccccc1[N+](=O)[O-])S(=O)(=O)c1cccc2c(N(C)C)cccc12 (configuration not stated) [2-[(5-Dimethylamino-naphthalene-1-sulfonyl)-(2-nitro-benzyl)-amino]-N-hydroxy-propionamide] | 9
9 | CC(C(=O)O)N(Cc1ccccc1[N+](=O)[O-])S(=O)(=O)c1cccc2c(N(C)C)cccc12 (configuration not stated) [2-[(5-Dimethylamino-naphthalene-1-sulfonyl)-(2-nitro-benzyl)-amino]-propionic acid] | 2100
10 | CC(C(=O)NO)N(Cc1ccccc1[N+](=O)[O-])S(=O)(=O)C(F)(F)C(F)(F)C(F)(F)C(F)(F)C(F)(F)C(F)(F)C(F)(F)C(F)(F)F (configuration not stated) [2-[(Heptadecafluorooctane-1-sulfonyl)-(2-nitro-benzyl)-amino]-N-hydroxy-propionamide] | 8
11 | CC(C(=O)O)N(Cc1ccccc1[N+](=O)[O-])S(=O)(=O)C(F)(F)C(F)(F)C(F)(F)C(F)(F)C(F)(F)C(F)(F)C(F)(F)C(F)(F)F (configuration not stated) [2-[(Heptadecafluorooctane-1-sulfonyl)-(2-nitro-benzyl)-amino]-propionic acid] | 1700
12 | CC(C(=O)O)N(Cc1ccccc1[N+](=O)[O-])S(=O)(=O)c1cccc2ccccc12 (configuration not stated) [2-[(Naphthalene-1-sulfonyl)-(2-nitro-benzyl)-amino]-propionic acid] | 1600
13 | CC(C(=O)O)N(Cc1ccccc1[N+](=O)[O-])S(=O)(=O)c1ccc2ccccc2c1 (configuration not stated) [2-[(Naphthalene-2-sulfonyl)-(2-nitro-benzyl)-amino]-propionic acid] | 1800
14 | Cc1ccccc1S(=O)(=O)NC(=O)N(Cc1ccccc1[N+](=O)[O-])C(C)C(=O)O (configuration not stated) [2-[({[(2-methylphenyl)sulfonyl]amino}carbonyl)(2-nitrobenzyl)amino]propanoic acid] | 3000
15 | CC(C(=O)NO)N(Cc1ccccc1[N+](=O)[O-])C(=O)NS(=O)(=O)c1ccc(Cl)cc1 (configuration not stated) [2-[({[(4-chlorophenyl)sulfonyl]amino}carbonyl)(2-nitrobenzyl)amino]-N-hydroxypropanamide] | 7
16 | CC(C(=O)O)N(Cc1ccccc1[N+](=O)[O-])C(=O)NS(=O)(=O)c1ccc(Cl)cc1 (configuration not stated) [2-[({[(4-chlorophenyl)sulfonyl]amino}carbonyl)(2-nitrobenzyl)amino]propanoic acid] | 2700
17 | CC(C(=O)NO)N(Cc1ccccc1[N+](=O)[O-])C(=O)NS(=O)(=O)c1ccc(F)cc1 (configuration not stated) [2-[({[(4-fluorophenyl)sulfonyl]amino}carbonyl)(2-nitrobenzyl)amino]-N-hydroxypropanamide] | 8
